Consider five compounds from patent US20110117081A1, “FUNCTIONALIZED PYRROLIDINES AND USE THEREOF AS IAP INHIBITORS” (priority 2008, published 2011).

Each structure is given as a SMILES string.

Experiment [1] relates to Rheumatoid arthritis human fibroblast-like synoviocytes (HFLS-RA). Nature of the experiment: Human synoviocytes + Fas antibody cell viability assay (Cell Titer-Glo). Conditions: with anti-human CD95 (Fas) antibody (300 ng/ml), 72 hrs, read-out: EC50 synoviocyctes + FAS. The experiment is classed as cell-based. As to the method: Rheumatoid arthritis human fibroblast-like synoviocytes (HFLS-RA, Cell Applications Inc.) were seeded in 96-well plates at 3000 cells per well in 100 ul of complete synoviocyte growth medium (Cell Applications Inc.) one day prior to treatment. Triplicate wells of cells were treated by the addition of 50 ul of diluted compound (0.01 to 100 nM) in combination with 50 ul of anti-human CD95 (Fas) antibody (300 ng/ml; clone CH-11, Beckman Coulter/Immunotech) and incubated at 37° C. (5% CO2) for 72 hrs. Cell viability was measured by Cell Titer-Glo Luminescent Assay (Promega). Briefly, 100 ul of media was removed from wells and an equal volume of Cell Titer-Glo Reagent was added to the cells. The plates were mixed for 2 minutes on an orbital shaker and after a 10-minute incubation period at room temperature, the emitted luminescence was detected using a Tecan Infinite F200 spectrophotometer.
(§1) The percentage viability of compound-treated cells was expressed as a fraction of the absorbance/luminescence signal obtained from non-treated cells. EC50 values (corresponding to 50% cell survival in the presence of compound as compared to untreated controls) were calculated from MTT survival curves (HCT116 and SKOV3) using BioAssay software (CambridgeSoft) and from Cell Titer-Glo survival curves (synovioycte and Jurkat cells) using GraphPad Prism (Graph Pad Software Inc.). In the below chart, EC50 values are summarized as follows: a=EC50 of less than 10 nM; b=EC50 of 10-100 nM; and c=EC50 of greater than 100 nM.

Experiment [2] deals with Ovarian adenocarcinoma SKOV3 cells. Nature of the experiment: SKOV3 cell viability assay (MTT). Type of experiment: cell-based. Conditions: Homo sapiens, SK-OV-3, 72 hours. As to the method:
Ovarian adenocarcinoma SKOV3 cells (ATCC# HTB-77) were cultured as monolayers in McCoy's 5a medium (HyClone) supplemented with 2.2 g/L sodium bicarbonate (Gibco), 10% FBS (HyClone) and 1% penicillin/streptomycin (HyClone). Cells were seeded in tissue culture-treated 96 well plates at 5000 cells/well in 150 ul of media. After 24 hours, triplicate wells of cells were treated with various concentrations of compound (0.01 to 10000 nM) diluted in 50 ul of culture media. Cells were incubated at 37° C. (5% CO2) in the presence of compound for 72 hours. Metabolic viability of remaining cells was assessed by MTT (thiazolyl blue tetrazolium bromide, Sigma) assay. 20 ul of MTT reagent (10 mg/ml) was added per well and plates were incubated for 4 hours at 37° C. (5% CO2). The supernatant was then removed from the plate. The converted MTT product was solubilized with 100 uL of isopropanol and the absorbance was read at 570 nm using a Tecan spectrophotometer.
as §1

In experiment [3] the test system is Colorectal carcinoma HCT116 cells. Nature of the experiment: HCT116 + ETR1 cell viability assay (MTT). The experiment is classed as cell-based. Conditions: with ETR1 (40 ng/ml), 72 hrs.
The subject of another experiment is HCT-116 xenograft. Nature of the experiment: Tumor suppressive effect in combination with ETR1, HCT-116 xenograft model. Type of experiment: in vivo. Conditions: 1 mg/kg IV, 5 on/2off; with Mapatumamab 10 mg/kg IP twice weekly; after 3 weeks of treatment; CD-1 nude mice. As to the method:
Tumor Suppressive Effect of Compound in Combination with ETR1 using an HCT-116 Xenograft Model
Female, CD-1, nude mice received 1.5×10^6 HCT-116 cells (in 100 uL of serum-free media) subcutaneously at the right flank. When average tumor size reached ˜150 mm^3 groups were formed using a balanced design based on tumor size, and treatment commenced. Tumor bearing mice were treated with either vehicle (5% D5W; 5 mL/kg, IV) or compound (1 mg/kg, IV) using a 5 on/2off treatment schedule. Mapatumamab (10 mg/kg, IP) was given twice weekly for the duration of the experiment, commencing one day after IAP inhibitory compounds.

In a further experiment the test system is H460 xenograft. Description: Tumor suppressive effect in combination with Taxotere, H460 xenograft model. Conditions: 1 mg/kg IV, 5 on/2off; with Taxotere 30 mg/kg IP; after 3 weeks of treatment; CD-1 nude mice. The experiment is classed as in vivo. As to the method: Tumor Suppressive Effect of Compound in Combination with Taxotere using an H460 Xenograft Model
Female, CD-1, nude mice received 1×10^6 H460 cells (in 100 uL of serum-free media) subcutaneously at the right flank. When average tumor size reached ˜100 mm^3 groups were formed using a balanced design based on tumor size, and treatment commenced. Tumor bearing mice were treated with either vehicle (5% D5W; 5 mL/kg, IV) or compound (1 mg/kg, IV) using a 5 on/2off treatment schedule. Taxotere (30 mg/kg, IP) was given twice, one week apart commencing one day after IAP inhibitory compounds.

In general, EC50 refers to the concentration at which the effect is half-maximal. Consider `CN[C@@H](C)C(=O)N[C@H](C(=O)N1C[C@@H](NC(=O)c2ccc(C(=O)N[C@H]3C[C@@H](C(=O)N[C@@H]4CCCc5ccccc54)N(C(=O)[C@@H](NC(=O)[C@H](C)NC)C4CCCCC4)C3)cc2)C[C@H]1C(=O)N[C@@H]1CCCc2ccccc21)C1CCCCC1` [Compound 1], for which the EC50 in experiment [1], in experiment [2] and in experiment [3] was less than 10 nM in each case. Moreover, the “tumor growth suppression relative to vehicle treated controls” value in the experiment on HCT-116 xenograft came out at 59%; in the experiment on H460 xenograft, 54%.
For the compound `CN[C@@H](C)C(=O)N[C@H](C(=O)N1C[C@@H](NC(=O)C2CCC(C(=O)N[C@H]3C[C@@H](C(=O)N[C@@H]4CCc5ccccc54)N(C(=O)[C@@H](NC(=O)[C@H](C)NC)C4CCCCC4)C3)CC2)C[C@H]1C(=O)N[C@@H]1CCc2ccccc21)C1CCCCC1` (stereo partly drawn) [Compound 3], the EC50 in experiment [1], in experiment [2] and in experiment [3] was less than 10 nM in each case.
With `CN[C@@H](C)C(=O)N[C@H](C(=O)N1C[C@@H](NC(=O)C2CCC(C(=O)N[C@H]3C[C@@H](C(=O)NC(c4ccccc4)c4ccccc4)N(C(=O)[C@@H](NC(=O)[C@H](C)NC)C4CCCCC4)C3)CC2)C[C@H]1C(=O)NC(c1ccccc1)c1ccccc1)C1CCCCC1` (stereo partly drawn) [Compound 7], the EC50 in experiment [1], in experiment [2] and in experiment [3] was less than 10 nM in each case.
Regarding `CN[C@@H](C)C(=O)N[C@H](C(=O)N1C[C@@H](NC(=O)c2ccc(C(=O)N[C@H]3C[C@@H](C(=O)N4CC[C@@H](c5ccccc5)C4)N(C(=O)[C@@H](NC(=O)[C@H](C)NC)C4CCCCC4)C3)cc2)C[C@H]1C(=O)N1CC[C@@H](c2ccccc2)C1)C1CCCCC1` [Compound 41], the EC50 in experiment [1] and in experiment [3] was 10 to 100 nM in each case.
With `CC[C@H](NC)C(=O)N[C@H](C(=O)N1C[C@@H](NC(=O)c2ccc(C(=O)N[C@H]3C[C@@H](C(=O)N[C@@H]4CCCc5ccccc54)N(C(=O)[C@@H](NC(=O)[C@H](CC)NC)C4CCCCC4)C3)cc2)C[C@H]1C(=O)N[C@@H]1CCCc2ccccc21)C1CCCCC1` [Compound 51], the EC50 in experiment [1] and in experiment [3] was less than 10 nM each time.
